Non-standard residues stand in square brackets, D forms with d. Residues, ends and D or L forms follow the SMILES beside them. Phe(2-F) = N[C@@H](Cc1ccccc1F)C(=O)O; Orn = NCCC[C@H](N)C(=O)O; Dab = NCC[C@H](N)C(=O)O
Key:
[1] = biological target: bovine serum albumin (BSA) (Bos taurus, UniProt P02769); test: Fluorescence quenching of BSA by peptides L1–3
Description: Fluorescence spectroscopy was carried out to characterize the mechanism of the interaction between three plasma proteins, BSA, AAG, and GGF, with the studied peptides. The fluorescence spectra of protein were collected during titration of L1–L3. The excitation wavelength was set at λ = 280 nm (both Trp and Tyr residues were excited).
To confirm this, the fluorescence data were further analyzed by the Stern–Volmer Equation (1) after correction due to the infer filter effect (2):(1) F0/F=1+kqτ[Q]=1+KSV (2) Fcorr=Fobs10^(Aex+Aem)/2 where F0 and F are the fluorescence intensities (after correction) of the protein and protein in the presence of L1–3, respectively, kq is the quenching rate constant, τ0 the average lifetime, [Q] is the L1–3 concentration, Ksv is the Stern–Volmer constant, and Fcorr, and Fobs are the corrected and observed fluorescence intensities, respectively. Aex and Aem are the absorbance values at excitation and emission wavelengths, respectively. A linear regression fit was used to calculate the value of the Stern–Volmer constant (Ksv). Then, assuming the average lifetime of the fluorophore in the excited state for a biomolecule as 10^−8 s, the quenching rate constant (kq) was computed. For dynamic quenching, the maximum scatters collision quenching rate constant for different quenchers with the biopolymers was reported to be 2 × 10^10 dm^3mol^−1s^−1 [55, 56]. […] Collisional quenching occurs when the excited-state fluorophore is deactivated by contact with some other molecule in solution (by collisions). […] This is a dynamic mechanism of quenching. The quenching constant characterizes the quenching mechanism. The maximum value for collisional quenching is 2 × 10^10 dm^3mol^−1s^−1. […] For further confirmation, measurements were made at, in addition to 297 K, temperatures 303 and 308 K. Experimental data points were fitted and analyzed using Equation (1).
Both for the complexes with BSA and with GGF, the binding constant (Kb) and the binding stoichiometry (n) were calculated. […] The values of Kb and n were calculated from the slope and the intercept of the log [(F0 − F)/F] versus log [Q] plot (Figure 2).
The forces involved in the interaction can be identified by measurement at different temperatures and then by thermodynamic analysis. The signs of the thermodynamic parameters identify the type of interactions. The enthalpy change (ΔH°), the entropic change (ΔS°), and the free energy change (ΔG°) were calculated from Equations (4) and (5):(4) […]=−ΔH^°/RT+ΔS^°/R (5) ΔG^°=ΔH^°−TΔS^°=−RTlnKb where Kb is the binding constant and R is the universal gas constant. To determine the thermodynamic parameters, the van’t Hoff plot was first conducted, i.e., the temperature dependence of the binding constant, according to Equation (4). The Kb values at the three temperatures were fitted by the linear regression method. The values of ΔH and ΔS were calculated from the slope and intercept at the fitted line. Next, the free energy change (ΔG°) was obtained from Equation (5).

BSA = biological target: T1, BSA (Bos taurus, UniProt P02769); settings: 298 K, one-to-one stoichiometry; cited from earlier work
T1 construct: purchased Sigma Aldrich
T1 sequence (P02769 25-607): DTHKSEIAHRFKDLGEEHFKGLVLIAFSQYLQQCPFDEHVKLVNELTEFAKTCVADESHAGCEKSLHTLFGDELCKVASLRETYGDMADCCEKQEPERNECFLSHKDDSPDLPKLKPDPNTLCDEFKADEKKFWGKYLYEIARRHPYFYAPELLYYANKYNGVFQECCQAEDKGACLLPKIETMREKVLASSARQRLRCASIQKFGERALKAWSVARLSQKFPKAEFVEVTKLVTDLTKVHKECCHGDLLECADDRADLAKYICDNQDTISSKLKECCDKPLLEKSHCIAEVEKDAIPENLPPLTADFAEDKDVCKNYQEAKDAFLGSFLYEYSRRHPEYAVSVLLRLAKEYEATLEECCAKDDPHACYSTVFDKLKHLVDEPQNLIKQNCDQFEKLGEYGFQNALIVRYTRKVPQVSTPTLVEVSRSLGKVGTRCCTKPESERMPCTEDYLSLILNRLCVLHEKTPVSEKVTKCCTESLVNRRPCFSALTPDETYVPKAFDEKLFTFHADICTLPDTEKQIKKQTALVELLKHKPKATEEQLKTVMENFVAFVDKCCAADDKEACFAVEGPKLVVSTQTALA
Description: The enthalpy change (ΔH°), the entropic change (ΔS°), and the free energy change (ΔG°) were calculated from Equations (4) and (5):(4) […]=−ΔH^°/RT+ΔS^°/R (5) ΔG^°=ΔH^°−TΔS^°=−RTlnKb where Kb is the binding constant and R is the universal gas constant. To determine the thermodynamic parameters, the van’t Hoff plot w ...

[2] = 297 K, BSA 1.0 µM, phosphate buffer
[3] = 308 K, BSA 1.0 µM, phosphate buffer

Sequence of bovine serum albumin (BSA) (P02769 25-607): as above

In the case of `C[C@H](NC(=O)[C@H](CCN)NC(=O)[C@@H](N)CCCCN)C(=O)NCC(=O)N[C@@H](CCCN)C(=O)N1CCC[C@H]1C(=O)N[C@@H](Cc1c[nH]cn1)C(=O)N[C@@H](CCCCN)C(=O)N[C@@H](CCCNC(=N)N)C(=O)O` [L2, Lys-Dab-Ala-Gly-Orn-Pro-His-Lys-Arg] (H-K[Dab]AG[Orn]PHKR-OH), the “binding constant Kb” value [1, 2] is reported as 3.39 ± 0.06 × 10^4 dm^3mol^−1, the “binding constant Kb” value ([1]; 303 K, BSA 1.0 µM, phosphate buffer) is reported as 1.10 ± 0.05 × 10^4 dm^3mol^−1 and the “binding constant Kb” value [1, 3] is reported as 0.55 ± 0.02 × 10^4 dm^3mol^−1. The “binding constant Kb” value ([1]; BSA, 297 K) was 3.39 × 10^4 dm^3mol^−1.
With `N=C(N)NCCC[C@H](NC(=O)[C@H](CCCCN)NC(=O)[C@H](Cc1ccccc1F)NC(=O)[C@@H]1CCCN1C(=O)[C@H](CCCN)NC(=O)CNC(=O)[C@H](CCN)NC(=O)[C@H](CCN)NC(=O)[C@@H](N)CCCCN)C(=O)O` [L3, Lys-Dab-Dab-Gly-Orn-Pro-Phe(2-F)-Lys-Arg] (H-K[Dab][Dab]G[Orn]P[Phe(2-F)]KR-OH) the “binding constant Kb” value [1, 2] was 2.52 ± 0.07 × 10^4 dm^3mol^−1 and the “binding constant Kb” value [1, 3] was 0.76 ± 0.03 × 10^4 dm^3mol^−1.
For `COc1cc2ncnc(Nc3ccc(F)c(Cl)c3)c2cc1OCCCN1CCOCC1` [gefitinib], the “Kb constant to BSA” value (BSA) is listed as 8.32 × 10^4 dm^3mol^−1.
For `CS(=O)(=O)CCNCc1ccc(-c2ccc3ncnc(Nc4ccc(OCc5cccc(F)c5)c(Cl)c4)c3c2)o1` [lapatinib], the “Kb constant to BSA” value (BSA) is given as 2.24 × 10^5 dm^3mol^−1.
For `CCN(CC)CCNC(=O)c1c(C)[nH]c(/C=C2\C(=O)Nc3ccc(F)cc32)c1C` [sunitinib], the “Kb constant to BSA” value (BSA) is given as 1.32 × 10^5 dm^3mol^−1.

From PMC9918186, “Interaction of Positively Charged Oligopeptides with Blood Plasma Proteins” (International Journal of Molecular Sciences, 2023)
